Test results reported in patent US4725576A, “Fungicidal polypeptide compositions containing L-histidine and methods for use therefore” (priority 1985, dated 1988).

Key:
S. mutans SB = assay: Preincubation in acidic buffer, growth and viability of S. mutans SB; assay type: cell-based, Streptococcus mutans; conditions: for % Loss of Viability / GFU (colony forming units) / O.D. 675 nm: 500 μg/ml
Procedure: ^a S. mutans SB at 5 × 10^5 colony forming units per ml was
suspended and preincubated in MES buffer, pH 5.2, at an ionic strength of
0.025 for 1 and 2 hours at 37° C. Preincubation included various
dilution into Todd Hewitt dialysis growth media.
^b Optical densities were measured after 24 hours and 48 hours (value
in parenthesis) incubation at 37° C. for both 1 and 2 hour
^c Colony forming units were determined in duplicate after 24 hours
for both 1 and 2 hour preincubations. They were also determined after 48
hours on those 2 hour preincubation samples showing zero density (values

Candida Albicans 18804 = assay: Proliferation of Candida albicans 18804 on denture acrylic strips, poly-L-histidine; assay type: cell-based
Procedure: Denture acrylic was uniformly cut into strips of dimension 1/8 inches×1/8 inches×31/2 inches. Each strip was attached to the inside of the cap of the screw cap tube (13 X 100 mm) such that the bottom of each strip lay 3/8 inches from the bottom of each tube. Tubes containing denture strips were sterilized in the ethylene oxide sterilizer. In this experiment, poly-L-histidine was dissolved in 0.025 M MES buffer, pH 5.2 with heating. As in the previous experiment, denture strips were first pretreated with poly-L-histidine (4 mg per ml) overnight prior to incubation with Candida albicans for 21/4 hours. Strips were then transferred to YSM without poly-histidine (controls) or to YSM containing poly-histidine at 2 mg per ml. Although there was precipitation of the poly-L-histidine in the YSM, strips were incubated for 24 hours until controls had reached an optical density at 600 nm=1.2 corresponding to 10^7 colony-forming units per ml. As in experiment with the L-histidine heptapeptide, strips were then transferred to YSM without poly-L-histidine and the growth curve was followed by monitoring the increase in turbidity.

C. albicans = assay: HRP added to growing C. albicans cells (FIG. 1); assay type: cell-based, Candida albicans; conditions: data not shown
Procedure: FIG. 1 is a plot showing the effect of the salivary histidine-rich polypeptide on the growth of C. albicans.
When HRP was not placed in the growth medium initially but was added to growing cells, the following observations were noted (FIG. 1).

[1] = 1 hour preincubation, after 24 hours
[2] = 2 hours preincubation, after 24 hours
[3] = 2 hours preincubation, after 48 hours (in parenthesis)

| Substance | bacteriocidal activity for S. mutans SB (S. mutans SB; 1 or 2 hours preincubation in MES buffer, pH 5.2) | % Loss of Viability (S. mutans SB; [1]) [%] | GFU (colony forming units) (S. mutans SB; [1]) | O.D. 675 nm (S. mutans SB; 1 hour preincubation, after 24 hours incubation) | bacteriocidal effect after 48 hours of incubation (S. mutans SB; 2 hour preincubation in the MES) | % Loss of Viability (S. mutans SB; [2]) [%] | GFU (colony forming units) (S. mutans SB; [2]) | O.D. 675 nm (S. mutans SB; 2 hours preincubation, after 24 hours incubation) | % Loss of Viability (S. mutans SB; [3]) [%] | GFU (colony forming units) (S. mutans SB; [3]) | O.D. 675 nm (S. mutans SB; 2 hours preincubation, after 48 hours incubation (in parenthesis)) | optical densities after 48 hours in the growth media (S. mutans SB; cells previously exposed for 1 hour in the MES buffer) | effectiveness compared to His-7 (Candida Albicans 18804; compare Table 8 to Table 7) | time for which growth is inhibited (Candida Albicans 18804; denture strips, Table 8) [h] | Optical Density at 600 nm (Candida Albicans 18804; strips 4 mg per ml overnight, then YSM with 2 mg per ml 24 hours, then YSM without poly-L-histidine, 0 hours of incubation) | effectiveness on growth of C. albicans compared to HRP (C. albicans) |
| --- | --- | --- | --- | --- | --- | --- | --- | --- | --- | --- | --- | --- | --- | --- | --- | --- |
| HEWL: hen egg white lysozyme | bacteriocidal activity | 69.0 | 35.5 × 10^9 | 0.08 | continue to be bacteriocidal | 100 | 0 | 0 | 100 | 0 | 0 | attained optical densities similar to the controls |  |  |  |  |
| Poly-L-histidine |  |  |  |  |  |  |  |  |  |  |  |  | even more effective than His-7 | 80 | .02 | similarly effective to the HRP |
